Experiments:
NANOLUC® Luciferase = NANOLUC® Luciferase (Oplophorus gracilirostris, UniProt Q9GV45, A31E/A60N/A81I/F95D/I117V/K70R/L54V/L99Q/M102K/N193R/P142E/Q151K/Q38R/Q45L/V71I/Y165I); test: Luminescence assay: substrate titration with purified NANOLUC Luciferase (RLU, signal half-life, Km); type: biochemical; settings: 100 μM substrate; initial light output three minutes after substrate addition; relative to furimazine set to 1.0
Protocol: Each compound to be screened was dissolved in DMSO (5 mM) and then further diluted to 100 μM in NANO-GEO® Luciferase Assay Buffer. A two-fold dilution series was prepared for each substrate by serially diluting 500 μl of the substrate solution with 500 μl of NANO-GLO® Luciferase Assay Buffer. Each diluted substrate titration was then combined in equal volumes with purified NANOLUC® Luciferase diluted into CO2 independent media+10% FBS. Initial light output for each substrate was measured in a GLOMAX®-Multi+ luminometer three minutes after substrate addition and then at five minute intervals as a means to determine signal half-life. Signal half-life was calculated using GraphPad Prism One Phase Decay regression and Km and Vmax were calculated using GraphPad Prism using Michaelis-Menten regression.
The synthesized coelenterazine analogues (compounds of formula (I) and (II)) were evaluated for their suitability as luciferase substrates. NANOLUC® luciferase was employed for the screening because it is a small (19 kDa), stable, and particularly bright enzyme. […] RLU, half-life, and Km values are for furimazine is set to 1.0. […]

[1] = Solubility testing in formulation, UV-Vis of supernatant vs 0.2 micron filtrate; type: physicochemical; settings: 8.7 mM in ethanol/propylene glycol/hydroxypropyl-β-cyclodextrin/PEG 400/water (10:10:10:35:35); UV spectra of supernatant vs filtrate
Protocol: This 5× stock solution was then added to a solution of hydroxypropyl-β-cyclodextrin/water/PEG400 to give a formulation mixture of 8.7 mM in ethanol/propylene glycol/hydroxypropyl-β-cyclodextrin/PEG 400/water (10:10:10:35:35). The mixture was vortexed and centrifuged. Supernatant was sampled and measured in a UV-Vis spectrometer. The mixture was filtered through a 0.2 micron syringe filter and the filtrate was measured and compared to the supernatant.
Shown in FIG. 1 are UV spectra of JRW-1040 in the formulation, comparing supernatant and filtrate. The two UV spectra are superimposed, showing JRW-1040 is fully soluble in the formulation. Shown in FIG. 2 is the same experiment with furimazine. […] This is an example showing improvements in solubility compared to furimazine.

Sequence of NANOLUC® Luciferase (Q9GV45 28-196 with tags or gaps with the stated changes limits assumed): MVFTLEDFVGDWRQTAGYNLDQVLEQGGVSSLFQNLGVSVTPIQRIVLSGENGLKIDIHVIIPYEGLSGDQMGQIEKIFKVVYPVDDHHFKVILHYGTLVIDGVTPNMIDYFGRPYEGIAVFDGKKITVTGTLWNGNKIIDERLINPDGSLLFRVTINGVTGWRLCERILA

SMILES | RLU (@100 μM) (NANOLUC® Luciferase) | Solubility in the formulation [1]
O=c1c(Cc2ccco2)nc2c(Cc3ccccc3)[nH]c(-c3ccccc3)cn1-2 [Furimazine, 8-benzyl-2-(furan-2-ylmethyl)-6-phenylimidazo[1,2-a]pyrazin-3(7H)-one, reference compound] | 1 | not fully soluble
O=c1c(Cc2cccs2)nc2c(Cc3ccccc3)[nH]c(-c3cccc(O)c3)cn1-2 [JRW-1040, 8-benzyl-6-(3-hydroxyphenyl)-2-(thiophen-2-ylmethyl)imidazo[1,2-a]pyrazin-3(7H)-one] | 0.8 | fully soluble
